According to patent publication US5846742A, “Selecting substances for treating glucocorticoid-mediated inflammation or immune diseases using Tripterygium wilfordii Hook F extracts” (Board of Regents, The University of Texas System, priority 1997, dated 1998):

What was measured:
[1] = test system: PGE2 production by human monocytes (COX-2); assay: Endotoxin induced PGE2 production by monocytes (COX-2); format: cell-based; details: LPS 10 μg/ml, 18 hours, FIG. 29
Protocol: After 18 hours of incubation, cell-free supernatants were collected and assayed for PGE2 content with a radioimmunoassay kit (Amersham), as described by the manufacturer. Data represent the mean of two replicate determinations of two separate experiments. […] Human monocytes produce prostaglandinE2 (PGE2) when stimulated with bacterial endotoxin.

[2] = test system: T cells; assay: PHA-induced T cell proliferation, wilforonide (924); format: cell-based, human; details: at the level of ngs
Description: The molecular groups responsible for the immune suppressive function of these compounds are unknown, however, the core structure of diterpenoids which may be related to their activity consists of an α-β-unsaturated 5 element lactone which can be identified by Kedde reagents. HPLC was used to fractionate the ethyl acetate extract of TwHF and the Kedde reagents were employed to trace the fractions. Then, the effect of selected fractions on the in vitro IL-2 production and [^3 H]-thymidine incorporation by PHA-activated T cells was determined. Fractions that inhibit these T cell functions were selected and the chromatographic pattern was identified with HPLC. One fraction was further purified with HPLC and crystallized repeatedly; a pure, crystallized compound was obtained and designated "924".
[^3 H]-thymidine was added for the last 14 hours of culture. Each concentration was run in quadruplicate (4 times) and the results for each concentration averaged to provide a mean. The mean cpm×10^3 values were combined and expressed as a percent of T cell inhibition.
or absence of the indicated concentrations of wilforonide for 3 days.
[^3 H]-Thymidine was added for the last 14 hours. Data are from 4
independent experiments.

[3] = test system: human GR (COS-7 cells, MMTV-luciferase); assay: GR mediated MMTV-luciferase gene activation; format: cell-based; details: for GR-mediated target gene activation: purified TwHF compounds
Protocol: Cell transfections and assays of GR mediated gene activation. COS-7 cells were maintained in culture in DMEM-10% bovine calf serum. […] Cells were plated at 10^6 cells per 10 cm plate. Twenty-four hours later, the cells were transfected with 500 ng pRShGrα, a GR expression vector (obtained from the Salk Institute, La Jolla, Calif.) and 10 μg of pMMTV-luciferase, a synthetic reporter gene. However, other expression vectors and synthetic reporter genes available to those of skill in the art may be used for transfection. The vector pMMTV-luciferase contains the luciferase gene under regulatory control of glucocorticoid-inducible elements in the MMTV-long terminal repeat. Cells were transfected using the calcium-phosphate precipitation technique (mammalian transfection kit, Stratagene, La Jolla, Calif.). […] Twenty-four hours later, the cells were washed, harvested, and lysates prepared by three cycles of freeze/thawing. The lysates were cleared by centrifugation at 12,000×g for 5 minutes; aliquots were assayed for protein content and equal amounts of proteins were used for luciferase assays.
COS-7 cells were transfected with a human GR expression vector and the MMTV-luciferase reporter gene construct. A parallel set of plates was transfected with the constitutively active RSV-luciferase construct. […] Cells were lysed after 24 hours and assayed for luciferase activity.

[4] = test system: IDH4 cells; format: cell-based, human; details: 72 hours, FIG. 25
Protocol: IDH4 cells, that express endogenous glucocorticoid receptors, were produced by transfecting human fibroblasts with a plasmid containing the MMTV-long terminal repeat driving the SV40 large T antigen. Since extended growth of these cells is dependent on expression of the large T antigen, these cells require exogenous glucocorticoid to maintain proliferation.
[^3 H]-Thymidine was present for the last 16 h. Data represent the mean k inhibition of [^3 H]-thymidine incorporation of three replicate determinations of three separate experiments.

[5] = test system: Fibroblasts; format: cell-based, human; details: triptolide 10 ng/ml
Protocol: The cells were assayed for cell viability by using a cytoflowmeter (FACSCAN) after the cells were stained with propidium iodine.

[6] = test system: T cells; assay: PHA-induced T cell DNA synthesis, triptolide; format: cell-based, human; details: for PHA-induced T cell DNA synthesis (3H-thymidine incorporation): control 93,400
[7] = test system: B cells; assay: SA-induced B cell DNA synthesis / Ig production, triptolide; format: cell-based, human; details: for SA-induced B cell DNA synthesis (3H-thymidine incorporation): control 7,900
Description: Other components of Tripterygium wilfordii Hook F include: […]

[8] = test system: lymph cells; details: concanavalin A; cited from earlier work
[9] = test system: mouse spleen cells; details: high concentrations; cited from earlier work

Row | SMILES | Endotoxin induced PGE2 production / COX-2 induction [1] | Immunosuppressive action [2] | GR-mediated target gene activation [3] | Dexamethasone dependent growth of IDH4 cells [4] | Lymph cell proliferation [8] | further results
1 | CC#C[C@]1(O)CC[C@H]2[C@@H]3CCC4=CC(=O)CCC4=C3[C@@H](c3ccc(N(C)C)cc3)C[C@@]21C [RU486, reference compound] | inhibits endotoxin-induced PGE2 production by human peripheral blood monocytes, however, it is not as effective as the TwHF extract at lower concentrations | – | – | – | – | –
2 | CC(C)[C@]12O[C@H]1[C@@H]1O[C@]13[C@]1(O[C@H]1C[C@H]1C4=C(C(=O)OC4)[C@@H](O)C[C@@]13C)[C@@H]2O [Tripdiolide, tripdiolide] | inhibited by the extract of TwHF and its purified immunosuppressive component, tripdiolide | potent immunosuppressive action | inhibited target gene activation by GR | inhibited dexamethasone dependent growth of IDH4 cells in a concentration dependent manner | – | –
3 | CC(C)[C@]12O[C@H]1[C@@H]1O[C@]13[C@]1(O[C@H]1C[C@H]1C4=C(CC[C@@]13C)C(=O)OC4)[C@@H]2O [Triptolide, triptolide] | – | potent immunosuppressive action | inhibited target gene activation by GR | – | inhibit the proliferation of lymph cells induced by concanavalin A | Toxicity to fibroblasts [5]: toxic to fibroblasts; PHA-induced T cell DNA synthesis (3H-thymidine incorporation) ([6]; 0.1 ng/ml): 24,200 CPM; PHA-induced T cell DNA synthesis (3H-thymidine incorporation) ([6]; 1.0 ng/ml): 100 CPM; T lymphocyte proliferation ([6]; 0.1-1.0 ng/ml): inhibited proliferation of both T and B lymphocytes profoundly; SA-induced B cell DNA synthesis (3H-thymidine incorporation) ([7]; 0.1 ng/ml): 2,000 CPM; SA-induced B cell DNA synthesis (3H-thymidine incorporation) ([7]; 1.0 ng/ml): 100 CPM; B lymphocyte proliferation ([7]; 0.1-1.0 ng/ml): inhibited proliferation of both T and B lymphocytes profoundly; Immunoglobulin production, mitogen stimulated B lymphocytes ([7]; in vitro): inhibited the in vitro production of immunoglobulin from mitogen stimulated human B lymphocytes at comparably small concentrations; Lymphocyte proliferation and IL-2 production [9]: suppress B and T lymphocyte proliferation and interleukin-2 production by mouse spleen cells
4 | CC(C)[C@]12O[C@H]1[C@@H]1O[C@@]13[C@@]1(C)CCC4=C(COC4=O)[C@@H]1C[C@@H]1O[C@@]13C2=O [Triptonide, triptonide, reference compound] | – | – | – | – | inhibit the proliferation of lymph cells induced by concanavalin A | –
5 | CC(C)c1ccc2c(c1O)CC[C@H]1C3=C(CC[C@]21C)C(=O)OC3 [Triptophenolide, triptophenolide] | – | – | far less potent | less active and its activity was not generally correlated with dosage | – | Immunosuppressive activity relative to triptolide or tripdiolide [3]: much less immunosuppressive than triptolide or tripdiolide
